In patent publication US5663149A, “Human cancer inhibitory pentapeptide heterocyclic and halophenyl amides” (priority 1994, dated 1997):

How the values were obtained:
[1] = tested on: LOX Human Melanoma Xenograft; assay: LOX Human Melanoma Xenograft in nude mouse; format: in vivo; details: dose 52 μg/kg
Source text: (§1) Experimental Anti-cancer Activity of Dolastatin 10 in Murine in vivo Systems, T/C (μg/kg)

M5076 Ovary Sarcoma = assay: Murine in vivo system, M5076 Ovary Sarcoma; details: M5076, dose 26 μg/kg
Source text: as §1

Human Mammary Xenograft = Human Mammary Xenograft in nude mouse; format: in vivo; details: dose 26 μg/kg
Source text: as §1

[2] = tested on: P388 Lymphocytic Leukemia; assay: Murine in vivo system, P388 Lymphocytic Leukemia; details: P388, dose 13.0 μg/kg
Source text: as §1

OVCAR-3 (Ovarian) = assay: NCI human tumor cell line growth inhibition, OVCAR-3; format: cell-based; details: Ovarian OVCAR-3, 48 hours
Experimental: (§2) The only difference is historical usage.
(§3) Percent Growths are calculated for each dose.
(§4) This is the "baseline count", or "Tzero reading".

PS-388 (Mouse Leukemia) = assay: P-388 mouse leukemia cell growth inhibition; format: cell-based; details: Mouse Leukemia PS-388
Experimental: as §2, §3, §4

SF-295 (CNS) = assay: NCI human tumor cell line growth inhibition, SF-295; format: cell-based; details: CNS SF-295, 48 hours
Experimental: as §2, §3, §4

A498 (Renal) = details: Renal A498, 48 hours;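 note: NCI protocol, compound given at five doses from 0.01 to 100 µg/ml, percent growth versus untreated controls relative to cell count at time zero, regression on log dose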
Source text: The following measures are used to express drug activity by giving the drug dose which reduces cell growth to a specified percentage of growth:
There is no mathematical difference between ED50 and GI50, which are both calculated using the same formula. The only difference is historical usage.
TGI, (Total Growth Inhibition), is the drug dose needed to yield zero percent growth, i.e., just as many cells at the end of the experiment as were present in the beginning. Whether just as many cells were killed as were produced (steady state), or no growth occurred (total inhibition), cannot be distinguished.
Each drug is tested at five (5) doses: 100-10-1-0.1-0.01 μg/ml. Percent Growths are calculated for each dose. […] The log of the dose is used during the regression computation.
At the start of an experiment, cells from the in vitro cell cultures are inoculated into the appropriate tubes or microtiter plates. One set of control tubes/plates is immediately counted to determine the number of cells at the start of the experiment. This is the "baseline count", or "Tzero reading". At the end of the experiment (48 hours later) a second set of control tubes/plates is analyzed to determine the "Control Growth" value. The growth (or death) of cells relative to the initial quantity of cells is used to define the "Percent of Growth".

NCI-H460 (Lung-NSC) = assay: NCI human tumor cell line growth inhibition, NCI-H460; format: cell-based; details: Lung-NSC NCI-H460, 48 hours
Experimental: as §2, §3, §4

KM20L2 (Colon) = assay: NCI human tumor cell line growth inhibition, KM20L2; format: cell-based; details: Colon KM20L2, 48 hours
Experimental: as §2, §3, §4

SK-MEL-5 (Melanoma) = assay: NCI human tumor cell line growth inhibition, SK-MEL-5; format: cell-based; details: Melanoma SK-MEL-5, 48 hours
Experimental: as §2, §3, §4

Molecule	GI-50 (OVCAR-3 (Ovarian)) [µg/mL]	LC-50 (OVCAR-3 (Ovarian)) [µg/mL]	TGI (OVCAR-3 (Ovarian)) [ng/mL]	ED-50 (PS-388 (Mouse Leukemia)) [µg/mL]	GI-50 (SF-295 (CNS)) [µg/mL]	LC-50 (SF-295 (CNS)) [µg/mL]	TGI (SF-295 (CNS)) [ng/mL]	GI-50 (A498 (Renal)) [µg/mL]	LC-50 (A498 (Renal)) [µg/mL]	TGI (A498 (Renal)) [ng/mL]	GI-50 (NCI-H460 (Lung-NSC)) [µg/mL]	LC-50 (NCI-H460 (Lung-NSC)) [µg/mL]	TGI (NCI-H460 (Lung-NSC)) [ng/mL]	GI-50 (KM20L2 (Colon)) [µg/mL]	LC-50 (KM20L2 (Colon)) [µg/mL]	TGI (KM20L2 (Colon)) [ng/mL]	GI-50 (SK-MEL-5 (Melanoma)) [µg/mL]	LC-50 (SK-MEL-5 (Melanoma)) [µg/mL]	TGI (SK-MEL-5 (Melanoma)) [ng/mL]	other results
CC[C@H](C)[C@@H]([C@@H](CC(=O)N1CCC[C@H]1[C@H](OC)[C@@H](C)C(=O)N[C@@H](Cc1ccccc1)c1nccs1)OC)N(C)C(=O)[C@@H](NC(=O)[C@H](C(C)C)N(C)C)C(C)C [Dolastatin 10]																				T/C outcome: toxic [1]: toxic; T/C outcome: toxic (M5076 Ovary Sarcoma): toxic; T/C outcome: toxic (Human Mammary Xenograft): Toxic; T/C outcome: toxic [2]: toxic
L-Dolavalyl-L-Valyl-N-Methyl-(S,S,R)-Dolaisoleuinyl-(S,R,R)-Dolaproinyl-L- Methionine N-4-Chlorophenyl Amide [9e]	0.00000045	> 0.00001	0.0042	0.000603	0.0000023	> 0.00001	> 0.01	0.0000035	> 0.00001	> 0.01	0.0000022	> 0.00001	0.0085	0.00000084	> 0.00001	0.0051	0.00000033	> 0.00001	> 0.01	
L-Dolavalyl-L-Valyl-N-Methyl-(S,S,R)-Dolaisoleuinyl-(S,R,R)-Dolaproinyl-L- Methionine N-4-Fluorophenyl Amide [9a]	0.000049	> 0.001	0.33	0.000317	0.0001	> 0.001	> 1	0.00025	> 0.001	> 1	0.000089	> 0.001	0.66	0.00005	> 0.001	0.39	0.000038	> 0.001	0.57	
L-Dolavalyl-L-Valyl-N-Methyl-(S,S,R)-Dolaisoleuinyl-(S,R,R)-Dolaproinyl-L- Phenylalanine N-2,5-Dichlorophenyl Amide [9h]	0.0000031	> 0.0001	0.017	0.0000482	0.0000036	> 0.0001	> 0.1	0.000016	> 0.0001	> 0.1	0.0000029	> 0.0001	0.012	0.0000042	> 0.0001	0.037	0.0000031	> 0.0001	> 0.1	
L-Dolavalyl-L-Valyl-N-Methyl-(S,S,R)-Dolaisoleuinyl-(S,R,R)-Dolaproinyl-L- Phenylalanine N-2-(6-Chloro)benzothiazole Amide [9k]	0.0000043		0.027	0.000383	0.000022		> 0.1	0.000031		> 0.1	0.0000044		0.063	0.000022		0.072	0.000003		> 0.1	
